Results from ChEMBL document CHEMBL4613209, “Quinolone hybrids and their anti-cancer activities: An overview” (Eur J Med Chem, 2019).
Values after ≈ are worked out from the molar mass of the structure shown.

What was measured:
Hep 3B2 [1] = experiment: Antiproliferative activity against human Hep3B cells after 24 to 72 hrs by MTT assay; format: functional, cell-based
SMMC-7721 [2] = experiment: Antiproliferative activity against human SMMC7721 cells after 24 to 72 hrs by MTT assay; format: functional, cell-based
L1210 [3] = experiment: Antiproliferative activity against mouse L1210 cells after 24 to 72 hrs by MTT assay; format: functional, cell-based
HL-60 [4] = experiment: Antiproliferative activity against human HL60 cells after 24 to 72 hrs by MTT assay; format: functional, cell-based
[5] = target: Cellular tumor antigen p53 (Homo sapiens, UniProt P04637); experiment: Activation of p53 in human SMMC7721 cells; format: cell-based, SMMC-7721
Apoptosis regulator BAX = Apoptosis regulator BAX (Homo sapiens, UniProt Q07812); experiment: Activation of Bax in human SMMC7721 cells; format: cell-based, SMMC-7721
Caspase-9 = Caspase-9 (Homo sapiens, UniProt P55211); experiment: Activation of caspase 9 in human SMMC7721 cells; format: cell-based, SMMC-7721
Caspase-3 = Caspase-3 (Homo sapiens, UniProt P42574); experiment: Activation of caspase 3 in human SMMC7721 cells; format: cell-based, SMMC-7721
MCF7 [6] = experiment: Cytotoxicity against human MCF7 cells assessed as reduction in cell viability by MTT assay; format: functional, cell-based
SK-MEL3 = experiment: Cytotoxicity against human SK-MEL-3 cells assessed as reduction in cell viability by MTT assay; format: functional, cell-based
A-431 = experiment: Cytotoxicity against human A431 cells assessed as reduction in cell viability by MTT assay; format: functional, cell-based
EJ = experiment: Cytotoxicity against human EJ cells assessed as reduction in cell viability by MTT assay; format: functional, cell-based
SW480 = experiment: Cytotoxicity against human SW480 cells assessed as reduction in cell viability by MTT assay; format: functional, cell-based
MCF7 [7] = experiment: Cytotoxicity against human MCF7 cells assessed as reduction in cell viability after 72 hrs by MTT assay; format: functional, cell-based; conditions: MCF7, 72 h
MCF7 [8] = experiment: Potency index, ratio of IC50 for etoposide to IC50 for test compound for cytotoxicity against human MCF7 cells assessed as reduction in cell viability after 72 hrs by MTT assay; format: functional
SW1990 = experiment: Cytotoxicity against human SW1990 cells assessed as reduction in cell viability by MTT assay; format: functional, cell-based
NCI/ADR-RES = experiment: Cytotoxicity against human MCF7/ADR cells assessed as reduction in cell viability by MTT assay; format: functional, cell-based
SMMC-7721 [9] = experiment: Cytotoxicity against human SMMC7721 cells assessed as reduction in cell viability by MTT assay; format: functional, cell-based
HUVEC = experiment: Cytotoxicity against human HUVEC cells assessed as reduction in cell viability by MTT assay; format: cell-based
HL-60 [10] = experiment: Cytotoxicity against human HL60 cells assessed as reduction in cell viability; format: functional, cell-based
Hep 3B2 [11] = experiment: Potency index, ratio of IC50 for doxorubicin to IC50 for test compound for cytotoxicity against human Hep3B cells assessed as reduction in cell viability; format: functional
CAPAN-1 [12] = experiment: Cytotoxicity against human Capan1 cells assessed as reduction in cell viability; format: functional, cell-based
Hep 3B2 [13] = experiment: Cytotoxicity against human Hep3B cells assessed as reduction in cell viability; format: functional, cell-based
CAPAN-1 [14] = experiment: Potency index, ratio of IC50 for doxorubicin to IC50 for test compound for cytotoxicity against human Capan1 cells assessed as reduction in cell viability; format: functional
HL-60 [15] = experiment: Potency index, ratio of IC50 for doxorubicin to IC50 for test compound for cytotoxicity against human HL60 cells assessed as reduction in cell viability; format: functional
KB = experiment: Potency index, ratio of TD50 for doxorubicin to TD50 for test compound for cytotoxicity against human KB cells assessed as reduction in cell viability; format: functional
L1210 [16] = experiment: Potency index, ratio of TD50 for doxorubicin to TD50 for test compound for cytotoxicity against mouse L1210 cells assessed as reduction in cell viability; format: functional
[17] = Potency index, ratio of TD50 for doxorubicin to TD50 for test compound for cytotoxicity against human SW403 cells assessed as reduction in cell viability; format: functional
MCF7 [18] = experiment: Potency index, ratio of TD50 for doxorubicin to TD50 for test compound for cytotoxicity against human MCF7 cells assessed as reduction in cell viability; format: functional
OVCAR-3 = experiment: Potency index, ratio of TD50 for doxorubicin to TD50 for test compound for cytotoxicity against human OVCAR3 cells assessed as reduction in cell viability; format: functional
[19] = Cytotoxicity against human WI38 cells assessed as reduction in cell viability; format: cell-based; conditions: WI-38 cells, read-out: TD50 (the source's name)
MRC5 = experiment: Cytotoxicity against human MRC5 cells assessed as reduction in cell viability; format: functional; conditions: read-out: TD50 (the source's name)
CCRF S-180 = experiment: Antitumor activity against mouse S180 cells xenografted in mouse assessed as reduction in tumor weight at 10 mg/kg relative to control; format: functional; parameters: scale not given: the % may be the effect or the level left
HeLa = experiment: Cytotoxicity against human HeLa cells assessed as reduction in cell viability after 24 to 72 hrs by MTT assay; format: functional, cell-based
L1210 [20] = experiment: Cytotoxicity against mouse L1210 cells assessed as reduction in cell viability after 24 to 72 hrs by MTT assay; format: functional, cell-based
SMMC-7721 [21] = experiment: Anticancer activity against human SMMC7721 cells after 48 to 72 hrs by MTT assay; format: functional, cell-based
HCT-116 = experiment: Anticancer activity against human HCT116 cells after 48 to 72 hrs by MTT assay; format: functional, cell-based
Jurkat = experiment: Anticancer activity against human Jurkat cells after 48 to 72 hrs by MTT assay; format: functional, cell-based

Caspase-3, sequence (P42574 29-175 limits assumed): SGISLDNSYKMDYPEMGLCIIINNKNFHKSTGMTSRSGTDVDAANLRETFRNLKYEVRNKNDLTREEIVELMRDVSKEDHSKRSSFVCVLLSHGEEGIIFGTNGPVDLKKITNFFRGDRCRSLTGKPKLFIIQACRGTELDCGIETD
Caspase-3, sequence (P42574 176-277 limits assumed): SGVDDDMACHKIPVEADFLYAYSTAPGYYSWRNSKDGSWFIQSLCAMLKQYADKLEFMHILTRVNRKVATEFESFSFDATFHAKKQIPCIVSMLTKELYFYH
Apoptosis regulator BAX, sequence (Q07812 whole entry): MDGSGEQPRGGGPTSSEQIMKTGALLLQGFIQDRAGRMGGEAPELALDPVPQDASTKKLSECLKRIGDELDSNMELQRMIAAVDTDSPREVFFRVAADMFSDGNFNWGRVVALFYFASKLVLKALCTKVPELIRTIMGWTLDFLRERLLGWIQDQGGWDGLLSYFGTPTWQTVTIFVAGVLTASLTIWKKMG
Caspase-9, sequence (P55211 1-315 limits assumed): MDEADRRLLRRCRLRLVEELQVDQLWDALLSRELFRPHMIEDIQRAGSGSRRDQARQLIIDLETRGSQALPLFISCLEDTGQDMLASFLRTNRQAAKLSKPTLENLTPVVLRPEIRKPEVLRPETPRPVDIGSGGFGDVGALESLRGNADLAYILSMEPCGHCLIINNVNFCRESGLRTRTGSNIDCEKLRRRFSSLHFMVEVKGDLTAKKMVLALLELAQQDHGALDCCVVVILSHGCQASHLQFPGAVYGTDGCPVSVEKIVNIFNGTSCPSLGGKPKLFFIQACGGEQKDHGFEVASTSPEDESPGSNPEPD
Caspase-9, sequence (P55211 331-416 limits assumed): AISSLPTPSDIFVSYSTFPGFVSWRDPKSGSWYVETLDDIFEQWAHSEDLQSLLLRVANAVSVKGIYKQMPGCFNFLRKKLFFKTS
Cellular tumor antigen p53, sequence (P04637 whole entry): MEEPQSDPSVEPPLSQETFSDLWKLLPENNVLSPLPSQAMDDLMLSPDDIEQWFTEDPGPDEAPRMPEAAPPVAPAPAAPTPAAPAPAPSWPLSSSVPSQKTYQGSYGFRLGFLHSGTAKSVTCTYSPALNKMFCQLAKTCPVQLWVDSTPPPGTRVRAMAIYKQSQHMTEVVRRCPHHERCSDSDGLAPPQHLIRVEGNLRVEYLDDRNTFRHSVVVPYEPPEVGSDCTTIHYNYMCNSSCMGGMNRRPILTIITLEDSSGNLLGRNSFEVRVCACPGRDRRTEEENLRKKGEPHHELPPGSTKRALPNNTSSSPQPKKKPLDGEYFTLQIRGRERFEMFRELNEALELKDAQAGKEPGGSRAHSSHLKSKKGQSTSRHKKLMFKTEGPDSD

SMILES: O=C(N/N=C/c1ccc2c(c1)OCO2)c1cn(C2CC2)c2cc(N3CCNCC3)c(F)cc2c1=O
- IC50 (Hep 3B2 [1]): 1.4 to 52.3 µM
- IC50 (SMMC-7721 [2]): 1.4 to 52.3 µM
- IC50 (L1210 [3]): 1.4 to 52.3 µM
- IC50 (HL-60 [4]): 1.4 to 52.3 µM
- IC50 [5]: 3 to 7.39 µM
- IC50 (Apoptosis regulator BAX): 3 to 7.39 µM
- IC50 (Caspase-9): 3 to 7.39 µM
- IC50 (Caspase-3): 3 to 7.39 µM

SMILES: CCn1cc(C(=O)O)c(=O)c2cc(F)c(N3CCN(C/C(=N/OC)c4ccc(Cl)s4)CC3)cc21
- IC50 (MCF7 [6]): ≤ 20 µM
- IC50 (SK-MEL3): ≤ 20 µM
- IC50 (A-431): ≤ 20 µM
- IC50 (EJ): ≤ 20 µM
- IC50 (SW480): ≤ 20 µM
- IC50 (MCF7 [7]): 2.5 to 5 µM
- Ratio IC50 (MCF7 [8]): 4.64

SMILES: COc1ccc2cc3[n+](cc2c1OCc1cn(Cc2cc(=O)[nH]c4ccccc24)nn1)-c1cc2c(cc1CC3)OCO2
- IC50 (SW1990): 75.5 to 181 µM
- IC50 (NCI/ADR-RES): 75.5 to 181 µM
- IC50 (MCF7 [6]): 75.5 to 181 µM
- IC50 (SMMC-7721 [9]): 75.5 to 181 µM
- IC50 (HUVEC): 75.5 to 181 µM

SMILES: CN1CCN(c2cc3c(cc2F)c(=O)c(-c2nc4s/c(=C\c5ccc(S(N)(=O)=O)cc5)c(=O)n4n2)cn3C2CC2)CC1
- IC50 (HL-60 [10]): 1.5 µM
- Ratio IC50 (Hep 3B2 [11]): 2.3 - 5.6
- IC50 (CAPAN-1 [12]): 0.3 µM
- IC50 (Hep 3B2 [13]): 0.7 µM
- Ratio IC50 (CAPAN-1 [14]): 2.3 - 5.6
- Ratio IC50 (HL-60 [15]): 2.3 - 5.6

SMILES: Cc1cn(-c2ccc(CCCCCCCCCCn3ccc(=O)c4c(N)cccc43)cc2)nn1
- Ratio (KB): >=4.6
- Ratio (L1210 [16]): >=4.6
- Ratio [17]: >=4.6
- Ratio (MCF7 [18]): >=4.6
- Ratio (OVCAR-3): >=4.6
- CC50 [19]: 7.45 µg/mL (≈ 16.3 µM)
- CC50 (MRC5): 0.033 µg/mL (≈ 0.0721 µM)
- Activity (CCRF S-180): 13.1%

SMILES: CCOC(=O)c1cn(CC)c2c(ccc3n[se]nc32)c1=O
- IC50 (HeLa): ≤ 100 µM
- IC50 (L1210 [20]): ≤ 100 µM

SMILES: COc1cc(/C=N/n2c(SCc3ccccc3)nnc2-c2cn(C3CC3)c3cc(N4CCNCC4)c(F)cc3c2=O)cc(OC)c1OC
- IC50 (SMMC-7721 [21]): < 50 µM
- IC50 (HCT-116): < 50 µM
- IC50 (Jurkat): < 50 µM
